Values joined by “and” are separate entries in the source; they are usually repeats but may differ in a detail not shown here. Equal entries are not always repeated. Toxic doses and inconclusive results are not listed.
Test system: BDF1 mice, P388 leukemia ip, median survival T/C
Test: NCI In Vivo Anticancer Drug Screen. Data for tumor model P388 Leukemia (intraperitoneal) in B6D2F1 (BDF1) mice
Details: endpoint: median survival time, higher = longer survival
Procedure, shortened: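 Read-out is survival of treated animals expressed relative to the vehicle group, as a T/C ratio.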

[1] = dose: 100.0 mg/kg/injection, schedule: Q01DX009 (ip), vehicle: saline with Tween-80
[2] = dose: 100.0 mg/kg/injection, schedule: Q04DX003 (ip), vehicle: saline with Tween-80
[3] = dose: 200.0 mg/kg/injection, schedule: Q01DX009 (ip), vehicle: saline with Tween-80
[4] = dose: 100.0 mg/kg/injection, schedule: Q04DX003 (ip), vehicle: saline
[5] = dose: 12.5 mg/kg/injection, schedule: Q01DX009 (ip), vehicle: saline
[6] = dose: 25.0 mg/kg/injection, schedule: Q01DX009 (ip), vehicle: saline
[7] = dose: 100.0 mg/kg/injection, schedule: Q04DX003 (ip), vehicle: Klucel (hydroxypropylcellulose) (HPC)
[8] = dose: 200.0 mg/kg/injection, schedule: Q04DX003 (ip), vehicle: Klucel (hydroxypropylcellulose) (HPC)
[9] = dose: 400.0 mg/kg/injection, schedule: Q04DX003 (ip), vehicle: Klucel (hydroxypropylcellulose) (HPC)
[10] = dose: 25.0 mg/kg/injection, schedule: Q04DX003 (ip), vehicle: saline
[11] = dose: 50.0 mg/kg/injection, schedule: Q04DX003 (ip), vehicle: saline

In the case of `Cc1c(Cl)cccc1N1C(=O)CC(Sc2ccccc2N)C1=O` (centres undefined), the T/C [1] is reported as 110 % of control, the T/C [2] is reported as 95 % of control and the T/C [3] is reported as 105 % of control. The T/C (dose: 200.0 mg/kg/injection, schedule: Q04DX003 (ip), vehicle: saline with Tween-80) was 104 % of control, the T/C (dose: 400.0 mg/kg/injection, schedule: Q01DX009 (ip), vehicle: saline with Tween-80) was 105 % of control and the T/C (dose: 400.0 mg/kg/injection, schedule: Q04DX003 (ip), vehicle: saline with Tween-80) was 109 % of control.

In the case of `Cc1nc(N)c([N+](=O)[O-])cc1[N+](=O)[O-]`, the T/C (dose: 100.0 mg/kg/injection, schedule: Q01DX001 (ip), vehicle: Klucel (hydroxypropylcellulose) (HPC)) is reported as 87 % of control.

For `C=C(C)[C@@]12O[C@@]3(CCCCCCCCC)O[C@@H]1[C@@H]1[C@@H]4O[C@]4(CO)[C@@H](O)[C@]4(O)C(=O)C(C)=CC4[C@@]1(O3)[C@H](C)[C@H]2OC(=O)c1ccccc1` (some centres undefined), the T/C (dose: 400.0 micrograms/kg/injection, schedule: Q01DX009 (ip), vehicle: saline + alcohol) was 174 % of control.

`NCCCC(=O)O` was tested, and the T/C (dose: 100.0 mg/kg/injection, schedule: Q01DX001 (ip), vehicle: saline) was 100 % of control, the T/C [4] was 109 % of control and the T/C (dose: 200.0 mg/kg/injection, schedule: Q01DX001 (ip), vehicle: saline) was 100 % of control. The T/C (dose: 200.0 mg/kg/injection, schedule: Q04DX003 (ip), vehicle: saline) was 86 % of control, the T/C (dose: 400.0 mg/kg/injection, schedule: Q01DX001 (ip), vehicle: saline) was 90 % of control and the T/C (dose: 400.0 mg/kg/injection, schedule: Q04DX003 (ip), vehicle: saline) was 118 % of control.

For `C1=C(c2ccccc2)C(c2ccccc2)=C(c2ccccc2)C(c2ccccc2)C(c2ccccc2)=N1` (centres undefined), the T/C (dose: 50.0 mg/kg/injection, schedule: Q01DX009 (ip), vehicle: saline with Tween-80) was 100 % of control, the T/C [1] was 92 % of control and the T/C [3] was 106 % of control.

`Cc1ccc2scc3c4ccccc4nc-3c2c1` was tested, and the T/C (dose: 2.5 mg/kg/injection, schedule: Q01DX009 (ip), vehicle: saline) was 94 % of control, the T/C (dose: 5.0 mg/kg/injection, schedule: Q01DX009 (ip), vehicle: saline) was 107 % of control and the T/C (dose: 10.0 mg/kg/injection, schedule: Q01DX009 (ip), vehicle: saline) was 114 % of control. For the same compound, the T/C [5] was 113 % of control and 124 % of control, the T/C (dose: 20.0 mg/kg/injection, schedule: Q01DX009 (ip), vehicle: saline) was 94 % of control and the T/C [6] was 113 % of control and 124 % of control. For the same compound, the T/C (dose: 56.25 mg/kg/injection, schedule: Q04DX003 (ip), vehicle: saline) was 104 % of control, the T/C (dose: 75.0 mg/kg/injection, schedule: Q01DX009 (ip), vehicle: saline) was 100 % of control and 104 % of control and the T/C (dose: 112.5 mg/kg/injection, schedule: Q01DX009 (ip), vehicle: saline) was 96 % of control. For the same compound, the T/C (dose: 112.5 mg/kg/injection, schedule: Q04DX003 (ip), vehicle: saline) was 113 % of control.

For `COCCCn1c(C(Cl)(Cl)Cl)nn2c(=O)c3ccccc3nc2c1=O`, the T/C [1] was 87 % of control and the T/C [3] was 90 % of control.

In the case of `NC(=O)Nc1nc(-c2ccccc2)no1`, the T/C (dose: 100.0 mg/kg/injection, schedule: Q01DX009 (ip), vehicle: Klucel (hydroxypropylcellulose) (HPC)) is reported as 95 % of control, the T/C [7] is reported as 100 % of control and the T/C (dose: 200.0 mg/kg/injection, schedule: Q01DX009 (ip), vehicle: Klucel (hydroxypropylcellulose) (HPC)) is reported as 100 % of control. For the same compound, the T/C [8] was 109 % of control, the T/C (dose: 400.0 mg/kg/injection, schedule: Q01DX009 (ip), vehicle: Klucel (hydroxypropylcellulose) (HPC)) was 90 % of control and the T/C [9] was 100 % of control.

For `Cc1c2oc3c(C)ccc(C(=O)NCc4ccccc4)c3nc-2c(C(=O)NCc2ccccc2)c(N)c1=O`, the T/C (dose: 100.0 mg/kg/injection, schedule: Q04DX002 (sc), vehicle: olive oil, sesame oil, peanut oil) was 99 % of control, the T/C (dose: 200.0 mg/kg/injection, schedule: Q04DX002 (sc), vehicle: olive oil, sesame oil, peanut oil) was 98 % of control and the T/C (dose: 400.0 mg/kg/injection, schedule: Q04DX002 (sc), vehicle: olive oil, sesame oil, peanut oil) was 101 % of control.

With `COc1cc(/C=C(/C)[N+](=O)[O-])cc(Br)c1OC` the T/C [2] was 117 % of control.

For `CC(C)(C)C([NH-])=O.CC(C)(C)C([NH-])=O.[Cl][Pt+2][Cl]`, the T/C (dose: 3.12 mg/kg/injection, schedule: Q01DX009 (ip), vehicle: saline) was 88 % of control, the T/C (dose: 6.25 mg/kg/injection, schedule: Q01DX009 (ip), vehicle: saline) was 92 % of control and the T/C [5] was 108 % of control. For the same compound, the T/C (dose: 12.5 mg/kg/injection, schedule: Q04DX003 (ip), vehicle: saline) was 105 % of control, the T/C [6] was 92 % of control and the T/C [10] was 107 % of control. For the same compound, the T/C (dose: 50.0 mg/kg/injection, schedule: Q01DX009 (ip), vehicle: saline) was 94 % of control and the T/C [11] was 98 % of control.

For `CC(CC(Sc1ccccc1)Sc1ccccc1)CC(Sc1ccccc1)Sc1ccccc1`, the T/C (dose: 100.0 mg/kg/injection, schedule: Q04DX002 (ip), vehicle: saline with Tween-80) was 100 % of control, the T/C (dose: 200.0 mg/kg/injection, schedule: Q04DX002 (ip), vehicle: saline with Tween-80) was 92 % of control and the T/C (dose: 400.0 mg/kg/injection, schedule: Q04DX002 (ip), vehicle: saline with Tween-80) was 106 % of control.

For `CCCCCCOB(OCCCCCC)OCCCCCC`, the T/C (dose: 22.5 mg/kg/injection, schedule: Q01DX009 (ip), vehicle: saline with Tween-80) was 94 % of control, the T/C (dose: 45.0 mg/kg/injection, schedule: Q01DX009 (ip), vehicle: saline with Tween-80) was 97 % of control and the T/C (dose: 90.0 mg/kg/injection, schedule: Q01DX009 (ip), vehicle: saline with Tween-80) was 102 % of control.

With `C1SCSCS1` the T/C (dose: 75.0 mg/kg/injection, schedule: Q01DX009 (ip), vehicle: Klucel (hydroxypropylcellulose) (HPC)) was 118 % of control, the T/C (dose: 100.0 mg/kg/injection, schedule: Q01DX001 (ip), vehicle: other) was 109 % of control and the T/C [7] was 100 % of control. The T/C (dose: 150.0 mg/kg/injection, schedule: Q01DX009 (ip), vehicle: Klucel (hydroxypropylcellulose) (HPC)) was 100 % of control, the T/C (dose: 200.0 mg/kg/injection, schedule: Q01DX001 (ip), vehicle: other) was 90 % of control and the T/C [8] was 109 % of control. For the same compound, the T/C (dose: 300.0 mg/kg/injection, schedule: Q01DX009 (ip), vehicle: Klucel (hydroxypropylcellulose) (HPC)) was 113 % of control, the T/C (dose: 400.0 mg/kg/injection, schedule: Q01DX001 (ip), vehicle: other) was 100 % of control and the T/C [9] was 113 % of control.

In the case of `COc1cc2cc3c4cc5c(cc4cc[n+]3c(C)c2cc1OC)OCO5` (tested in a mixture with another compound), the T/C (dose: 1.46 mg/kg/injection, schedule: Q04DX003 (ip), vehicle: saline) is reported as 117 % of control, the T/C (dose: 16.5 mg/kg/injection, schedule: Q04DX003 (ip), vehicle: saline) is reported as 150 % of control and the T/C [10] is reported as 156 % of control and 159 % of control. The T/C (dose: 44.0 mg/kg/injection, schedule: Q04DX003 (ip), vehicle: saline) was 168 % of control, the T/C [11] was 160 % of control and the T/C (dose: 66.0 mg/kg/injection, schedule: Q04DX003 (ip), vehicle: saline) was 177 % of control. The T/C [4] was 163 % of control and 182 % of control.

Source: PubChem BioAssay AID328 (DTP/NCI, 2004)
